{"source": "patent US20120260922A1", "about": "“TOPICAL USE OF HYDROXYTYROSOL AND DERIVATIVES FOR THE PREVENTION OF HIV INFECTION” (priority 2009, published 2012)", "key": {"[1]": {"assay": "Vaginal tolerance in rabbits after repeated topical administration", "type": "in vivo", "settings": "rabbit, once daily 7 days, solution 90 and 397 mg/L", "procedure": "To determine the safety of hydroxytyrosol, a study of vaginal tolerance in rabbits after repeated once daily administration during 7 days was performed. Hydroxytyrosol was applied as a solution."}, "[2]": {"target": "HIV-integrase (Human immunodeficiency virus type 1 group M subtype B, UniProt P04585)", "settings": "Huang et al. 2007; cited from earlier work"}, "[3]": {"test_system": "recombinant virus NL4.3-delta-env-VSV-Luc (HIV VSV pseudotyped virus)", "type": "cell-based, HIV-1"}, "[4]": {"test_system": "MT-2 cells", "assay": "Viability assay on non-infected MT-2 cells", "settings": "48 hour"}, "[5]": {"test_system": "X4-tropic virus (NL.4.3 Ren)", "assay": "Antiviral activity in PBMC's, X4-tropic virus", "type": "cell-based, HIV-1", "settings": "PBMC's activated with PHA+IL-2; compared with MT-2", "procedure": "Similar assays were carried out using peripheral blood mononuclear cells (PBMC's) for healthy donors, prior activation with PHA+IL-2 during 48 hours and maintaining with IL-2 for at least another 48 hours. In this case the number of cells per well was 250.000. In addition, infection with HIV virus with R5-tropism (JR-Ren) was also included in the assays."}, "[6]": {"test_system": "raltegravir resistant HIV virus (mutation 148)", "assay": "Antiviral activity against raltegravir resistant viruses", "type": "cell-based", "settings": "viruses resistant to raltegravir"}}}
{"compound": "OCCc1ccc(O)c(O)c1", "note": "[Hydroxytyrosol, 4-(2-hydroxyethyl)-1,2-benzenediol]", "values": [{"measurement": "mean irritation value (MIV)", "setting": "[1]", "value": 0.00}, {"measurement": "morphological alterations in the vagina", "setting": "[1]", "value": "no morphological alterations"}, {"measurement": "effect on in vitro HIV-integrase activity", "setting": "[2]", "value": "dose-dependent inhibitory effect"}, {"measurement": "inhibition of VSV pseudotyped viruses", "setting": "[3]", "value": "inhibits VSV pseudotyped viruses"}, {"measurement": "toxicity / cell viability", "setting": "[4]", "value": "not due to toxicity"}, {"measurement": "IC50 value for infection with X4-tropic", "setting": "[5]", "value": "higher than in the assays with cell line MT-2"}, {"measurement": "activity against integrase resistant viruses", "setting": "[6]", "value": "lack of cross resistance"}, {"measurement": "activity against integrase resistant viruses", "setting": "[6]; listed as hydroxytyrosol", "value": "mantained its activity"}]}
